Calls of active or inactive are those of the source. No cut-off for these calls is given here.
Tests used:
RAW264.7 [1] = assay: Anti-inflammatory activity in mouse RAW264.7 cells assessed as inhibition of LPS-induced NO production preincubated for 1 hr followed by LPS addition and measured after 24 hrs; type: functional, cell-based
[2] = Cytotoxicity against mouse RAW264 cells assessed as reduction in cell viability at 25 uM incubated for 24 hrs by MTT assay; type: cell-based
RAW264.7 [3] = assay: Anti-inflammatory activity in mouse RAW264.7 cells assessed as reduction in LPS-induced iNOS protein level at 6.25 to 12.5 microM by Western blot analysis; type: functional, cell-based
RAW264.7 [4] = assay: Anti-inflammatory activity in mouse RAW264.7 cells assessed as reduction in LPS-induced COX2 protein level at 6.25 to 12.5 microM by Western blot analysis; type: functional, cell-based
RAW264.7 [5] = assay: Anti-inflammatory activity in mouse RAW264.7 cells assessed as reduction in LPS-induced IL6 level preincubated for 2 hrs followed by LPS addition and measured after 18 hrs by ELISA; type: functional, cell-based
RAW264.7 [6] = assay: Anti-inflammatory activity in mouse RAW264.7 cells assessed as reduction in LPS-induced TNFalpha level preincubated for 2 hrs followed by LPS addition and measured after 18 hrs by ELISA; type: functional, cell-based
[7] = Cytotoxicity against mouse RAW264 cells assessed as reduction in cell viability up to 25 uM incubated for 24 hrs by MTT assay; type: cell-based

| SMILES | inhibition (RAW264.7 [1]) | Activity [2] | Activity (RAW264.7 [1]) | Activity (RAW264.7 [3]) | Activity (RAW264.7 [4]) | Activity (RAW264.7 [5]) | Activity (RAW264.7 [6]) | Activity [7] |
| --- | --- | --- | --- | --- | --- | --- | --- | --- |
| COC(=O)[C@@H](N)CCCNC(=N)N[N+](=O)[O-] | Active |  |  |  |  |  |  |  |
| C/C=C1/C(=O)C[C@H]2[C@@H]3CCC4=CC(=O)CC[C@]4(C)[C@H]3CC[C@]12C [E-GUGGULSTERONE] |  | Toxic | Dose-dependent effect | Active | Active | Dose-dependent effect | Dose-dependent effect |  |
| C/C=C1\C(=O)C[C@H]2[C@@H]3CCC4=CC(=O)CC[C@]4(C)[C@H]3CC[C@]12C [GUGGULSTERONE] |  |  | Dose-dependent effect |  |  |  |  | Non-Toxic |

Source: ChEMBL document CHEMBL4616612, “Synthesis and inhibitory effect of cis-guggulsterone on lipopolysaccharide-induced production of nitric oxide in macrophages” (Bioorg Med Chem Lett, 2020)
